The values below come from patent publication US10174029B2, “Pyrimidine-2,4-diamine derivatives for treatment of cancer” (THOMAS HELLEDAYS STIFTELSE FOR MEDICINSK FORSKNING, priority 2012, dated 2019).

A value given as a limit tells only on which side of the number the result lay.

The first assay has as its target MTH1 (Homo sapiens, UniProt P36639). The experiment in a line: MTH1 enzymatic assay and IC50 value determination (malachite green). Conditions: MTH1 4.8 nM, dGTP 100 μM, 15 minutes at 22° C.; group: between 2 μM and 10 μM. Format: biochemical. The protocol: MTH1 Enzymatic Assay and IC50 Value Determination
MTH1 catalyzes the hydrolysis of dGTP to dGMP and PPi. By coupling the reaction to pyrophosphatase added in excess PPi is converted to Pi that can be detected by using the malachite green assay reagent. Briefly, for IC50 value determination the compound to be analyzed is diluted in assay buffer in a 1:3 dilution series generating 12 different compound concentrations giving a final DMSO concentration of 1% in the assay well. MTH1 diluted in assay buffer (100 mM Tris-acetate, 40 mM NaCl, 10 mM magnesium acetate, 1 mM DTT and 0.005% Tween 20) fortified with E. coli pyrophosphatase (0.8 U/ml) is added to a final concentration of 4.8 nM. dGTP diluted in assay buffer is added to a final concentration of 100 μM. The reaction mixture is incubated with shaking for 15 minutes at 22° C. To 100 μl reaction mixture is 25 μl Malachite green assay regent (0.095% Malachite green in 17% H2SO4, 1.5% Ammonium molybdate, 0.17% Tween 20) added followed by incubation with shaking for 15 minutes at 22° C.
The absorbance of the assay plate is read at 630 nm using an EnVision Multilabel plate reader. The IC50 value is determined by fitting a dose response curve to the data points using nonlinear regression analysis and the equation Y=Bottom+(Top−Bottom)/(1+10^((Log IC50−X)*HillSlope)), where Y is the read absorbance at 630 nm and X is log [compound].
The molecule `Cc1cccc(-c2cc(NCC(C)(C)C)nc(N)n2)c1C` [Example 181, 6-(2,3-dimethylphenyl)-4-N-(2,2-dimethylpropyl)pyrimidine-2,4-diamine] gave an IC50 of 2000 to 10000 nM.
As for `Cc1ccc(S(=O)(=O)n2cc(-c3cc(N[C@H](C)C4CC4)nc(N)n3)c3ccccc32)cc1` [Example 167, 4-N-[(1R)-1-cyclopropylethyl]-6-[1-(4-methylbenzenesulfonyl)-1H-indol-3-yl]pyrimidine-2,4-diamine], the 50% inhibitory concentration (IC50) was in the range of 2000 to 10000 nM.
The same measure, in the same setting: the figure for `Cc1ccc(S(=O)(=O)n2cc(-c3cc(NCC(C)(C)C)nc(N)n3)c3ccccc32)cc1` [Example 182, 4-N-(2,2-dimethylpropyl)-6-[1-(4-methylbenzenesulfonyl)-1H-indol-3-yl]pyrimidine-2,4-diamine] is 2000 to 10000 nM.
The same measure, in the same setting: the result for `Cc1cccc(-c2cc(NC3CCCCC3NC(=O)OC(C)(C)C)nc(N)n2)c1C` (mixture of isomers) [Example 372, tert-Butyl N-(2-{[2-amino-6-(2,3-dimethylphenyl)pyrimidin-4-yl]amino}cyclohexyl)-carbamate] reads 2000 to 10000 nM; that for `Cc1ccc(S(=O)(=O)N2CCOCC2)cc1-c1cc(NCCCN2CCCC2=O)nc(N)n1` [Example 289, 1-[3-({2-amino-6-[2-methyl-5-(morpholine-4-sulfonyl)phenyl]pyrimidin-4-yl}amino)propyl]pyrrolidin-2-one], 2000 to 10000 nM; that for `Nc1nc(NC2CCOCC2)cc(-c2ccc(Cl)cc2)n1` [Example 15, 6-(4-chlorophenyl)-4-N-(oxan-4-yl)pyrimidine-2,4-diamine], 2000 to 10000 nM.

Staying with this assay, now noted: MTH1 4.8 nM, dGTP 100 μM, 15 minutes at 22° C.; group: less than 200 nM.
With `[2H]C([2H])([2H])Nc1cc(-c2cccc(C)c2Cl)nc(N)n1` [Example 422, 6-(2-chloro-3-methylphenyl)-4-N—(^2H3)methylpyrimidine-2,4-diamine], the half-inhibitory concentration (IC50) was less than 200 nM.
Take `Cc1cccc(-c2cc(NC3CCC3)nc(N)n2)c1C` [Example 151, 4-N-cyclobutyl-6-(2,3-dimethylphenyl)pyrimidine-2,4-diamine]: the IC50 was less than 200 nM.
Still for that read-out and setting: the result for `CNc1cc(-c2cc(Cl)ccc2Cl)nc(N)n1` [Example 209, 6-(2,5-dichlorophenyl)-4-N-methylpyrimidine-2,4-diamine] reads less than 200 nM.
On the same count and under the same terms, the figure for `Cc1cccc(-c2cc(NCCc3n[nH]c(-c4ccncc4)n3)nc(N)n2)c1C` [Example 349, 6-(2,3-dimethylphenyl)-4-N-{2-[5-(pyridin-4-yl)-1H-1,2,4-triazol-3-yl]ethyl}pyrimidine-2,4-diamine] is less than 200 nM.
On the same count and under the same terms, the figure for `CNc1cc(-c2cccc3ncccc23)nc(N)n1` [Example 52, 4-N-methyl-6-(quinolin-5-yl)pyrimidine-2,4-diamine] is less than 200 nM.
`Cc1cccc(-c2cc(NCC(C)c3ccc(Cl)cc3)nc(N)n2)c1C` (centres unmarked) [Example 343, 4-N-[2-(4-Chlorophenyl)propyl]-6-(2,3-dimethylphenyl)pyrimidine-2,4-diamine]: the IC50 was less than 200 nM.
On to `C#CCNc1cc(-c2cccc(C)c2C)nc(N)n1` [Example 386, 6-(2,3-Dimethylphenyl)-4-N-(prop-2-yn-1-yl)pyrimidine-2,4-diamine], for which the half-inhibitory concentration (IC50) is less than 200 nM.
Same read-out and setting: the result for `Nc1nc(NC2CCCCC2)cc(-c2cccc(Cl)c2Cl)n1` [Example 175, 4-N-cyclohexyl-6-(2,3-dichlorophenyl)pyrimidine-2,4-diamine] reads less than 200 nM.
`Cc1cccc(-c2cc(NCCc3ccc(Cl)cc3)nc(N)n2)c1Cl` [Example 228, 6-(2-chloro-3-methylphenyl)-4-N-[2-(4-chlorophenyl)ethyl]pyrimidine-2,4-diamine] had an IC50 of less than 200 nM.
The same measure, in the same setting: the result for `Cc1ccc(Cl)cc1-c1cc(NCCc2ccc(Cl)cc2)nc(N)n1` [Example 222, 6-(5-chloro-2-methylphenyl)-4-N-[2-(4-chlorophenyl)ethyl]pyrimidine-2,4-diamine] reads less than 200 nM.
Regarding `CCCNc1cc(-c2ccccc2)nc(N)n1` [Example 4, 6-phenyl-4-N-propylpyrimidine-2,4-diamine], the IC50 is less than 200 nM.
The same measure, in the same setting: the figure for `Nc1nc(NC2CCCC2)cc(-c2cccc(C(F)(F)F)c2)n1` [Example 57, 4-N-cyclopentyl-6-[3-(trifluoromethyl)phenyl]pyrimidine-2,4-diamine] is less than 200 nM.
As for `CNc1cc(-c2cc(F)c(C)cc2Cl)nc(N)n1` [Example 213, 6-(2-chloro-5-fluoro-4-methylphenyl)-4-N-methylpyrimidine-2,4-diamine], the IC50 is less than 200 nM.
In turn, `CNc1cc(-c2cc(C)c(F)cc2Cl)nc(N)n1` [Example 215, 6-(2-chloro-4-fluoro-5-methylphenyl)-4-N-methylpyrimidine-2,4-diamine] came in with an IC50 of less than 200 nM.
Still for that read-out and setting: the result for `CS(=O)(=O)c1ccc(CCNc2cc(-c3cccc(Cl)c3Cl)nc(N)n2)cc1` [Example 445, 6-(2,3-dichlorophenyl)-4-N-[2-(4-methanesulfonylphenyl)ethyl]pyrimidine-2,4-diamine] reads less than 200 nM; that for `CNc1cc(-c2cc(Cl)c3c(c2)OCO3)nc(N)n1` [Example 97, 6-(7-chloro-2H-1,3-benzodioxol-5-yl)-4-N-methylpyrimidine-2,4-diamine], less than 200 nM.
The same measure, in the same setting: the figure for `Cc1cccc(-c2cc(NCCOc3ccccc3)nc(N)n2)c1C` [Example 132, 6-(2,3-dimethylphenyl)-4-N-(2-phenoxyethyl)pyrimidine-2,4-diamine] is less than 200 nM; for `CNc1cc(-c2cc(Cl)c(OC)cc2Cl)nc(N)n1` [Example 192, 6-(2,5-dichloro-4-methoxyphenyl)-4-N-methylpyrimidine-2,4-diamine] it is less than 200 nM; for `Cc1cccc(-c2cc(NCCNc3ccc(S(N)(=O)=O)cn3)nc(N)n2)c1C` [Example 443, 6-[(2-{[2-amino-6-(2,3-dimethylphenyl)pyrimidin-4-yl]amino}ethyl)amino]pyridine-3-sulfonamide] it is less than 200 nM.
On the same count and under the same terms, the result for `CN(C)S(=O)(=O)c1ccc(CCNc2cc(-c3cccc(Cl)c3Cl)nc(N)n2)cc1` [Example 415, 4-(2-{[2-amino-6-(2,3-dichlorophenyl)pyrimidin-4-yl]amino}ethyl)-N,N-dimethylbenzene-1-sulfonamide] reads less than 200 nM.
`CNc1cc(-c2ccc(O)nc2)nc(N)n1` [Example 141, 5-[2-amino-6-(methylamino)pyrimidin-4-yl]pyridin-2-ol] showed an IC50 of less than 200 nM.
Still for that read-out and setting: the figure for `Cc1ccc(S(=O)(=O)n2cc(-c3cc(NCC4CC4)nc(N)n3)c3ccccc32)cc1` [Example 165, 4-N-(cyclopropylmethyl)-6-[1-(4-methylbenzenesulfonyl)-1H-indol-3-yl]pyrimidine-2,4-diamine] is less than 200 nM.
The same measure, in the same setting: the figure for `Cc1cc(Cl)ccc1-c1cc(NCCc2ccc(S(N)(=O)=O)cc2)nc(N)n1` [Example 432, 4-(2-{[2-amino-6-(4-chloro-2-methylphenyl)pyrimidin-4-yl]amino}ethyl)benzene-1-sulfonamide] is less than 200 nM.
The molecule `C=CS(=O)(=O)Nc1cccc(-c2cc(NC)nc(N)n2)c1` [Example 313, N-{3-[2-amino-6-(methylamino)pyrimidin-4-yl]phenyl}ethene-1-sulfonamide] registered an IC50 of less than 200 nM.
On the same count and under the same terms, the result for `Cc1cccc(-c2cc(NCc3cnc(-c4ccccc4)s3)nc(N)n2)c1C` [Example 411, 6-(2,3-dimethylphenyl)-4-N-[(2-phenyl-1,3-thiazol-5-yl)methyl]pyrimidine-2,4-diamine] reads less than 200 nM; that for `CNc1cc(-c2cccc3c2cnn3C)nc(N)n1` [Example 90, 4-N-methyl-6-(1-methyl-1H-indazol-4-yl)pyrimidine-2,4-diamine], less than 200 nM; that for `Cc1c(F)ccc(-c2cc(NCCc3ccc(S(C)(=O)=O)cc3)nc(N)n2)c1C` [Example 430, 6-(4-fluoro-2,3-dimethylphenyl)-4-N-[2-(4-methanesulfonylphenyl)ethyl]pyrimidine-2,4-diamine], less than 200 nM.
On the same count and under the same terms, the result for `Cc1c(C#N)cccc1-c1cc(NCCc2ccc(S(N)(=O)=O)cc2)nc(N)n1` [Example 426, 4-(2-{[2-amino-6-(3-cyano-2-methylphenyl)pyrimidin-4-yl]amino}ethyl)benzene-1-sulfonamide] reads less than 200 nM.
Molecule `CNc1cc(-c2cc(F)ccc2C)nc(N)n1` [Example 202, 6-(5-fluoro-2-methylphenyl)-4-N-methylpyrimidine-2,4-diamine] had an IC50 of less than 200 nM.
`CCNc1cc(-c2cn(S(=O)(=O)c3ccc(C)cc3)c3ccccc23)nc(N)n1` [Example 159, 4-N-ethyl-6-[1-(4-methylbenzenesulfonyl)-1H-indol-3-yl]pyrimidine-2,4-diamine] yielded an IC50 of less than 200 nM.
Same read-out and setting: the figure for `Cc1cccc(-c2cc(NC3CC3c3ccc(Cl)cc3)nc(N)n2)c1C` (centres unmarked) [Example 267, 4-N-[2-(4-chlorophenyl)cyclopropyl]-6-(2,3-dimethylphenyl)pyrimidine-2,4-diamine] is less than 200 nM; for `CNc1cc(-c2cc(C)ccc2Cl)nc(N)n1` [Example 171, 6-(2-chloro-5-methylphenyl)-4-N-methylpyrimidine-2,4-diamine] it is less than 200 nM.

Broadly, the IC50 is the concentration at which inhibition is half-maximal.
